Experimental data taken from US7157408B2, “Quinoline fungicides” (Valent BioSciences Corporation, priority 2004, dated 2007).

Columns and labels:
[1] = tested on: Phaseolus vulgaris (Bush bean cv. Blue Lake 274) leaves; assay: Detached bean leaf bioassay, phytotoxicity rating; assay type: in vivo; conditions: 200 ppm, scale 0=no, 1=slight, 2=moderate, 3=excessive phytotoxicity
Method: Compound solution: Compound solutions were prepared by diluting compound stock solutions (1.0% w/v compound in DMSO) to 200 ppm with 0.01% w/v Triton X-100. Plant material: Middle trifoliate leaves of greenhouse grown Phaseolus vulgaris (Bush bean cv. Blue Lake 274) were excised and placed on a plastic grid above a tray containing moist towels. Treatment method: One half of the adaxial surface of the leaf was treated with the compound solution (100 :L) using a 3 cm Bacti Cell Spreader. A blank consisted of 0.01% w/v Triton X-100. A commercial fungicide control (200 ppm diluted with water) consisted of Scala. After the solutions dried, the trays containing the leaves were covered and held one day in a growth chamber (22C). The adaxial surfaces of the leaves were then inoculated with 5–60 :L droplets of Botrytis cinerea spore solution. Phytotoxicity ratings: Phytotoxicity was rated as 0=no phytotoxicity, 1=slight phytotoxicity, 2=moderate phytotoxicity, or 3=excessive phytotoxicity (Table 2).

Cercospora arachidicola = assay: Contact evaluation (microtiter plate); assay type: cell-based
Method: (§1) Compound solution: Contact evaluations were conducted to determine the anti-fungal activity of each compound against Botrytis cinerea, Sclerotinia sclerotiorum, Pythium aphanidermatum, Rhizoctonia solani, Cercospora arachidicola, Mycosphaerella fjiensis, and Monilinia laxa. Five milligrams of each compound were dissolved in 0.5 milliliter of DMSO for a compound stock solution of 1.0% w/v. Compound stock solutions were serial diluted with DMSO to 20, 10, and 2 ppm final well concentration. Fungi preparation: Botrytis cinerea spores were taken from 6-week-old cultures grown at 22C on full strength potato dextrous agar (PDA) plates. Sclerotinia sclerotiorum, Pythium aphanidermatum, Rhizoctonia solani, and Monilinia laxa mycelia were taken from 4- to 10-day-old shake flask cultures grown at room temperature on full strength potato dextrous broth (PDB). Cercospora arachidicola mycelia were taken from 10- to 14-day-old shake flask cultures grown at room temperature on a full strength PDB amended with peanut oil. Mycosphaerella fijiensis mycelia were taken from 10- to 14-day-old shake flask cultures grown at room temperature on V8 juice broth. Sclerotinia sclerotiorum, Pythium aphanidermatum, Rhizoctonia solani, Cercospora arachidicola, and Mycosphaerella fijiensis mycelia (0.4 g mycelia) were blended for 45 seconds in 20 mL sterile de-ionized water. Monilinia laxa mycelia (1 g mycelia) was blended for 45 seconds in 30 mL of sterile de-ionized water. Botrytis cinerea spores were diluted with quarter strength PDB to 1×10^5 spores/mL final well concentration. All mycelia were diluted in water (1:5 mycelia:water) before distributing into the wells. Microtiter plate preparation: Compound solution (10 :L), quarter strength PDB (900 :L) and fungi preparation (100 :L) were sequentially distributed into 48-well microtiter plates (n=3 replications/compound/rate). A blank consisted of quarter strength PDB and fungi preparation. Commercial fungicide controls (100 ppm diluted with water) consisted of Scala for Botrytis cinerea, Dithane F-45 for Mycosphaerella fijiensis, and Benlate for Sclerotinia sclerotiorum, Pythium aphanidermatum, Rhizoctonia solani, Cercospora arachidicola, and Monilinia laxa. Plates were shaken in a circular rotator at room temperature for 20 minutes, then incubated at 25C for 24 to 72 hours, depending on the pathogen. Fungal control ratings: Fungal growth in wells containing the compounds were compared to the positive control and fungal inhibition was rated as full, partial, or none. Final readings were the average of the three wells (Table 1).

Sclerotinia sclerotiorum = assay: Contact evaluation (microtiter plate); assay type: cell-based; conditions: Sclerotinia sclerotionum
Method: as §1

Rhizoctonia solani = assay: Contact evaluation (microtiter plate); assay type: cell-based; conditions: Rhizoctinia solani
Method: as §1

Pythium aphanidermatum = assay: Contact evaluation (microtiter plate); assay type: cell-based
Method: as §1

Botrytis cinerea [2] = assay: Contact evaluation (microtiter plate); assay type: cell-based
Method: as §1

Monilinia laxa = assay: Contact evaluation (microtiter plate); assay type: cell-based
Method: as §1

Mycosphaerella fijiensis = assay: Contact evaluation (microtiter plate); assay type: cell-based
Method: as §1

Botrytis cinerea [3] = assay: Detached bean leaf bioassay, fungal control; assay type: in vivo; conditions: 200 ppm, three days after inoculation, 100 minus percent necrotic area
Method: Compound solution: Compound solutions were prepared by diluting compound stock solutions (1.0% w/v compound in DMSO) to 200 ppm with 0.01% w/v Triton X-100. Spore solution preparation: Botrytis cinerea spores were taken from 6-week-old cultures grown at 22C on full strength potato dextrous agar (PDA) plates and harvested in 1:16 frozen orange juice concentrate:water. Botrytis cinerea spore solutions were prepared by diluting spore cultures to 5×10^4 spores/mL with 1:16 frozen orange juice concentrate:water. Plant material: Middle trifoliate leaves of greenhouse grown Phaseolus vulgaris (Bush bean cv. Blue Lake 274) were excised and placed on a plastic grid above a tray containing moist towels. Treatment method: One half of the adaxial surface of the leaf was treated with the compound solution (100 :L) using a 3 cm Bacti Cell Spreader. A blank consisted of 0.01% w/v Triton X-100. A commercial fungicide control (200 ppm diluted with water) consisted of Scala. […] Fungal control rating: Three days after inoculation with Botrytis, the percent necrotic area under the inoculation droplet was determined. Since the areas under the blank (0.01% w/v Triton X-100) were 100% infected, fungal control was expressed as 100 minus the percent necrotic area, and thus 0% infected is 100% fungal control (n=3 leaves/compound, 5 inoculation droplets/leaf, Table 2).

With `OCCc1c(Br)cc(Br)c2cccnc12` [Example 1, 5,7-dibromo-8-(2-hydroxyethyl)quinoline] the melting point was 128 to 131 °C, the Phytotoxity [1] was “Slight” and the “Control of fungi (full, partial, none)” value (Cercospora arachidicola; fungicide rate 2 ppm) was “None”. For the same compound, the “Control of fungi (full, partial, none)” value (Cercospora arachidicola; fungicide rate 10 ppm) was “Full”, the “Control of fungi (full, partial, none)” value (Cercospora arachidicola; fungicide rate 20 ppm) was “Full” and the “Control of fungi (full, partial, none)” value (Sclerotinia sclerotiorum; fungicide rate 2 ppm) was “Full”. The “Control of fungi (full, partial, none)” value (Sclerotinia sclerotiorum; fungicide rate 10 ppm) was “Full”, the “Control of fungi (full, partial, none)” value (Sclerotinia sclerotiorum; fungicide rate 20 ppm) was “Full” and the “Control of fungi (full, partial, none)” value (Rhizoctonia solani; fungicide rate 2 ppm) was “Full”. For the same compound, the “Control of fungi (full, partial, none)” value (Rhizoctonia solani; fungicide rate 10 ppm) was “Full”, the “Control of fungi (full, partial, none)” value (Rhizoctonia solani; fungicide rate 20 ppm) was “Full” and the “Control of fungi (full, partial, none)” value (Pythium aphanidermatum; fungicide rate 2 ppm) was “Full”. For the same compound, the “Control of fungi (full, partial, none)” value (Pythium aphanidermatum; fungicide rate 10 ppm) was “Full”, the “Control of fungi (full, partial, none)” value (Pythium aphanidermatum; fungicide rate 20 ppm) was “Full” and the “Control of fungi (full, partial, none)” value (Botrytis cinerea [2]; fungicide rate 2 ppm) was “Partial”. For the same compound, the “Control of fungi (full, partial, none)” value (Botrytis cinerea [2]; fungicide rate 10 ppm) was “Full”, the “Control of fungi (full, partial, none)” value (Botrytis cinerea [2]; fungicide rate 20 ppm) was “Full” and the “Control of fungi (full, partial, none)” value (Monilinia laxa; fungicide rate 2 ppm) was “Full”. The “Control of fungi (full, partial, none)” value (Monilinia laxa; fungicide rate 10 ppm) was “Full”, the “Control of fungi (full, partial, none)” value (Monilinia laxa; fungicide rate 20 ppm) was “Full” and the “Control of fungi (full, partial, none)” value (Mycosphaerella fijiensis; fungicide rate 2 ppm) was “Full”. For the same compound, the “Control of fungi (full, partial, none)” value (Mycosphaerella fijiensis; fungicide rate 10 ppm) was “Full”, the “Control of fungi (full, partial, none)” value (Mycosphaerella fijiensis; fungicide rate 20 ppm) was “Full” and the Botrytis cinerea control (Botrytis cinerea [3]) was 100%.
